Experiments:
Alternaria brassicae = assay: in vivo test on Alternaria brassicae (Leaf spot of crucifers); conditions: for effectiveness on Alternaria brassicae: at 330 ppm, comparison compounds of WO 01/11965
Procedure: in vivo test on Alternaria brassicae (Leaf spot of crucifers)
The active ingredient tested is prepared by potter homogenisation in a concentrated suspension type formulation at 100 g/l. This suspension is then diluted with water to obtain the desired active material concentration.
Radish plants (Pernot variety) in starter cups, sown on a 50/50 peat soil-pozzolana substrate and grown at 18-20° C., are treated at the cotyledon stage by spraying with the aqueous suspension described above.
Plants, used as controls, are treated with an aqueous solution not containing the active material.
After 24 hours, the plants are contaminated by spraying them with an aqueous suspension of Alternaria brassicae spores (40,000 spores per cm^3). The spores are collected from a 12 to 13 days-old culture.
The contaminated radish plants are incubated for 6-7 days at about 18° C., under a humid atmosphere.
Grading is carried out 6 to 7 days after the contamination, in comparison with the control plants.

Botrytis cinerea = assay: effectiveness on Botrytis cinerea; format: in vivo; conditions: at 330 ppm; comparison compounds of WO 01/11965
Peronosporaparasitica = assay: efficacy against Peronospora parasitica; format: in vivo; conditions: at 330 ppm; comparison compound of WO 01/11965

For `Cn1cc(C(=O)NCCc2ccc(C(F)(F)F)nc2)c(C(F)(F)F)n1` [Compound A-1, N-[2-(6-trifluoromethyl-3-pyridinyl)ethyl]-1-methyl-3-(trifluoromethyl)-1H-pyrazole-4-carboxamide], which “protection (good (at least 50%) or total)” value (Alternaria brassicae; 330 ppm, radish plants sprayed 24 h before contamination, grading 6 to 7 days after contamination vs control plants) is on record?
Its value is “at least 50%”.

With `O=C(Cc1cccs1)NCc1ncc(C(F)(F)F)cc1Cl` [compound 101, N-{[3-chloro-5-(trifluoromethyl)-2-pyridinyl]methyl}-5-thienylacetamide] as the molecule, how does the “effectiveness on Alternaria brassicae” value (Alternaria brassicae) read?
Its value is “poor efficacy”.

What about the “effectiveness on Botrytis cinerea” value (Botrytis cinerea) of the same molecule?
Its value is “no efficacy”.

What about the “efficacy against Peronospora parasitica” value (Peronosporaparasitica) of the same molecule?
The value was “no efficacy”.

With `CCNC(=O)C(Cc1ncc(C(F)(F)F)cc1Cl)NC(=O)c1ccccc1` (stereo not shown) [compound 304, N-{1-ethylcarbamoyl-2-[3-chloro-5-(trifluoromethyl)-2-pyridinyl]-ethyl}-benzamide] as the molecule, how does the “effectiveness on Botrytis cinerea” value (Botrytis cinerea) read?
The value was “zero effectiveness”.

For `CCNC(=O)C(Cc1ncc(C(F)(F)F)cc1Cl)NC(=O)c1ccc(Cl)cc1` (stereo not shown) [compound 306, N-{1-ethylcarbamoyl-2-[3-chloro-5-(trifluoromethyl) -2-pyridinyl]ethyl}-4-chlorobenzamide], which “effectiveness on Botrytis cinerea” value (Botrytis cinerea) is on record?
The value was “zero effectiveness”.

What does the source list for `CCNC(=O)C(Cc1ncc(C(F)(F)F)cc1Cl)NC(=O)c1cccc([N+](=O)[O-])c1` (stereo not shown) [compound 307, N-{1-ethylcarbamoyl-2-[3-chloro-5-(trifluoromethyl)-2-pyridinyl]ethyl}-3-nitrobenzamide]?
effectiveness on Alternaria brassicae (Alternaria brassicae): poor effectiveness; effectiveness on Botrytis cinerea (Botrytis cinerea): zero effectiveness

Which “effectiveness on Botrytis cinerea” value (Botrytis cinerea) does the source give for `CCNC(=O)C(Cc1ncc(C(F)(F)F)cc1Cl)NC(=O)c1ccccc1Br` (stereo not shown) [compound 310, N-{1-ethylcarbamoyl-2-[3-chloro-5-(trifluoromethyl)-2-pyridinyl]ethyl}-2-bromobenzamide] here?
The value was “zero effectiveness”.

`CNC(=O)C(Cc1ncc(C(F)(F)F)cc1Cl)NC(=O)c1ccccc1` (stereo not shown) [compound 314, N-{1-methylcarbamoyl-2-[3-chloro-5-(trifluoromethyl) -2-pyridinyl]ethyl}-benzamide] was tested. Which “effectiveness on Botrytis cinerea” value (Botrytis cinerea) did it give?
Its value is “zero effectiveness”.

For `CNC(=O)C(Cc1ncc(C(F)(F)F)cc1Cl)NC(=O)c1ccc(OC)cc1` (stereo not shown) [compound 315, N-{1-methylcarbamoyl-2-[3-chloro-5-(trifluoromethyl)-2-pyridinyl]ethyl}-4-methoxybenzamide], which “effectiveness on Botrytis cinerea” value (Botrytis cinerea) is on record?
Its value is “zero effectiveness”.

How did the “effectiveness on Alternaria brassicae” value (Alternaria brassicae) turn out when `CNC(=O)C(Cc1ncc(C(F)(F)F)cc1Cl)NC(=O)c1ccc(-c2ccccc2)cc1` (stereo not shown) [compound 316, N-{1-methylcarbamoyl-2-[3-chloro-5-(trifluoromethyl)-2-pyridinyl]-ethyl}-4-phenylbenzamide] was run?
Its value is “poor effectiveness”.

What about the “effectiveness on Botrytis cinerea” value (Botrytis cinerea) of the same molecule?
Its value is “zero effectiveness”.

— US20080096932A1, “3-Pyridinylethylcarboxamide Derivatives as Fungicides” (priority 2004, published 2008)
